Experimental findings from PMC11306024, “Novel metabolite madeirone and neomarinone extracted from Streptomyces aculeoletus as marine antibiofilm and antifouling agents” (Frontiers in Chemistry, 2024) are described below.

One series relates to Daphnia magna. The note with it: 100 µg/mL. Here is the method:
(§1) The in vivo evaluation of compounds (1) and (2) for acute toxicity was performed towards marine bacterium Aliivibrio fischeri, and planktonic crustacean Daphnia magna. The chronic ecotoxicity tests were evaluated using algae Pseudokirchneriella subcapitata and Phaeodactylum tricornutum.
The immobilization of D. magna at 24 h and 48 h was studied following a micro adaptation of the OECD Guideline 202 procedures (“Daphnia sp., Acute Immobilisation Test and Reproduction Test”), using the Daphtoxkit F (Microbiotests, Gent, Belgium). Firstly, the ISO matrix medium was prepared, aerated and adjusted to pH 7. Next, the neonate daphnids were incubated for 72 h at 20 ± 1°C with light and fed spirulina 2 h prior to use, according to the manufacturer’s instructions. […] For the miniaturization of the procedure, one daphnid neonate was exposed to each compound in 10 mL sterile tubes containing 2 mL of ISO matrix medium, with the compounds at the determined concentrations. The assays were performed in triplicate.

In a further series the test system is Aliivibrio fischeri. Nature of the series: Inhibition of bioluminescence (ISO 11348-3 micro adaptation). Format: cell-based. The note with it: Aliivibrio fischeri. Here is the method: as §1
The inhibition of bioluminescence of the marine bacterium A. fischeri, were studied following a micro adaptation of the standard procedure ISO 11348-3 (“Water Quality-Determination of the inhibitory effect of water samples on the light emission of Vibrio fischeri - Luminescent bacteria test–using freeze-dried bacteria method”). Briefly, frozen lyophilized bacterial cells (Abraxis, Warminster, PA, United States) were reconstituted in Reconstitution Solution, supplied by the manufacturer of the Abratox kit (Abraxis). Madeirone (1) and neomarinone (2) were dissolved in DMSO and tested at the concentrations of 100, 50, 25, 12.5, 6.25, 3.13, and 1.56 μg/mL. The emitted luminescence was measured using a luminometer at time 0 min and at different exposure times (5, 15 and 30 min) and the percentage of inhibition of bioluminescence was determined. Each experiment was performed in duplicate and the results of three independent experiments with <10% SD are presented. Phenol was used as a positive control.

The test system of series [1] is M. galloprovincialis plantigrade larvae. Kind of series: Mussel plantigrade larvae anti-settlement bioassay. Particulars: 15 h acute exposure, 95% confidence limits in brackets; for EC50: Mytilus galloprovincialis, 15 h, read-out: EC50 [Conf. Limits] anti-settlement. Format: in vivo, Mytilus galloprovincialis. On the procedure: The in vivo antimacrofouling activity of compounds (1) and (2) was evaluated against mussel M. galloprovincialis adhesive larvae (plantigrades) in an acute bioassay. Juvenile mussel aggregates were harvested from the intertidal rocky shore during low spring tides at Memória beach, Matosinhos, Portugal. In the laboratory, precisely before the bioassays, mussel plantigrade larvae were meticulously screened and isolated from the juvenile aggregates using a binocular microscope (Olympus SZX2-ILLT, Hamburg, Germany). The isolated larvae were then washed with filtered seawater to eliminate organic debris, and competent plantigrade larvae, characterized by foot exploratory behavior, were selected for the exposure bioassays, following established protocols ([Almeida et al., 2017]; [Almeida et al., 2020]; [Antunes et al., 2019]; [Mabrouk et al., 2020]). Plantigrades were exposed in 24-well polystyrene plates for 15 h in darkness at 18°C. DMSO served as the solvent for the testing compounds in stock and working solutions. The DMSO concentration in the tested solutions was consistently maintained at 0.1%. Each condition was replicated in four wells, with five larvae per well. Two negative controls, one with ultra-pure water and other with DMSO were included in all bioassays, along with a positive control using 0.16 μg/mL CuSO4, as a reference antifouling agent. The anti-settlement bioactivity was assessed based on the presence or absence of fixed byssal threads produced by each individual larva for all tested conditions. […] EC50 values for each compound were calculated using Probit regression analysis. Significance was considered at p < 0.01, and 95% lower and upper confidence limits (95% LCL; UCL). The software IBM SPSS Statistics 28 was used for statistical analysis. The therapeutic ratio (LC50/EC50) was employed to evaluate the effectiveness versus the toxicity of the compounds ([Qian et al., 2009]; [Almeida and Vasconcelos, 2015]).

The test system of the next series is M. hydrocarbonoclasticus. Kind of series: Antibiofilm activity (inhibition of biofilm formation). It is filed as cell-based, Marinobacter hydrocarbonoclasticus DSM 8798. The note with it: for Biofilm inhibition, up to (highest over tested concentrations) M. hydrocarbonoclasticus: 0.98-31.25 µg/mL tested; for inhibition at 15.6 µg/mL: 15.60 µg/mL. Here is the method:
(§2) To assess antimicrofouling activity, we selected five marine bacterial species as models: Marinobacter hydrocarbonoclasticus DSM 8798 (ATCC 49840), C. marina DSM 4741, Phaeobacter inhibens DSM 17,395, Pseusooceanicola batsensis DSM 15,984, and Micrococcus luteus DSM 20030 (ATCC 4698) ([Michael et al., 2016]). These strains, sourced from DSMZ (Leibniz Institute DSMZ—German Collection of Microorganisms and Cell Cultures), were cultured in liquid marine broth (Carl Roth GmbH, Karlsruhe, Germany) with agitation at 180 rpm or on agar-supplemented marine broth. Incubation temperatures were set at 28°C for M. hydrocarbonoclasticus and Cobetia marina, 30°C for P. inhibens and P. batsensis, while M. luteus was maintained at 37°C in Brain Heart Infusion broth (BHI, Becton Dickinson, GmbH, Heidelberg, Germany) under similar agitation conditions.
(§3) The antibiofilm potential of compounds (1) and (2) against the five marine bacterial species was investigated in 96-well polystyrene flat-bottom microplates (Nunclon Delta Surface, Thermo Scientific, Roskilde, Denmark), as described previously ([Bauermeister et al., 2019]; [Pereira et al., 2020]). In the initial screening, bacterial overnight cultures were diluted to an OD600 of 0.2 and incubated statically at appropriate temperatures. The cultures were tested at 31.25, 15.60, 7.81, 3.91, 1.95, 0.98 μg/mL concentrations (2-fold serial dilutions) of compounds (1) and (2), solubilized in DMSO, or left untreated. After 24 h (M. hydrocarbonoclasticus, C. marina) or 48 h (P. batsensis, P. inhibens, M. luteus) incubation, OD600 was measured. The planktonic cells and media were discarded, and the wells were washed twice with deionized water. Biofilms were fixed, stained, and quantified by measuring the OD600 after solubilization with acetic acid. Biofilm inhibition percentages were calculated relative to untreated bacterial species, using DMSO as a negative control and CuSO4 (0.16 μg/mL), as a positive control. All assays were performed in triplicate, and the results represent the mean and standard error of the mean (SEM). Statistical analysis was conducted using GraphPad Prism 8.0.2, employing one-way ANOVA followed by Dunnett’s multiple comparisons test against the negative control.

In a further series the test system is C. marina. Described as above. Format: cell-based, Cobetia marina DSM 4741. The note with it: for Biofilm inhibition, up to (highest over tested concentrations) C. marina: 0.98-31.25 µg/mL tested; for inhibition at 0.98 µg/mL / inhibition at 1.95 µg/mL / inhibition at 3.91 µg/mL / inhibition at 7.81 µg/mL / inhibition at 15.6 µg/mL / inhibition at 31.25 µg/mL: Cobetia marina, 24 h; for inhibition at 15.6 µg/mL: 15.60 µg/mL. Here is the method:
as §2, §3

In brackets after ≈: the same amount, converted by molar mass. Like-named read-outs stand apart in the source and are kept apart here.

Turning to `CC1=CCC[C@@H](C)[C@]1(C)CC[C@@]1(C)c2c(O)cc3c(c2O[C@@H]1C)C(=O)C(C)=C(O)C3=O` [compound 2, neomarinone], the “Inhibition (%) D. magna (immobilization)” value in the series with Daphnia magna (listed as Neomarinone (2)) is 33.0%. Also, in the series with Daphnia magna (listed as neomarinone (2)), the “Inhibition (%) D. magna (immobilization)” value turned out to be 33%. Further, in the series on Aliivibrio fischeri (50 µg/mL), the “Inhibition (%) A. fischeri (bioluminescence)” value (shortened to “Inhibition (%) A. fischeri”) came to 25.0%. The “Inhibition (%) A. fischeri” value with Aliivibrio fischeri (100 µg/mL) worked out at 37.3%. For the same molecule, in series [1], the “EC50 [Conf. Limits] anti-settlement” value is listed as 0.119 (0.015–0.253) µg/mL and the EC50 is 0.12 µg/mL (≈ 0.283 µM). Moreover, in the series with M. hydrocarbonoclasticus, the “Biofilm inhibition, up to (highest over tested concentrations) M. hydrocarbonoclasticus” value is listed as no more than 56%. In the series with M. hydrocarbonoclasticus (Marinobacter nauticus, 0.98 µg/mL, 24 h), this molecule showed an inhibition at 0.98 µg/mL of 49.2 ± 6.2%. In the series with M. hydrocarbonoclasticus (Marinobacter nauticus, 1.95 µg/mL, 24 h), the inhibition at 1.95 µg/mL is 58.1 ± 1.6%. This molecule also had an inhibition at 3.91 µg/mL in the series with M. hydrocarbonoclasticus (Marinobacter nauticus, 3.91 µg/mL, 24 h) of 54.5 ± 3.6%. In the series on M. hydrocarbonoclasticus (Marinobacter nauticus, 24 h), this molecule returned an inhibition at 7.81 µg/mL of 54.4 ± 1.8%, an inhibition at 15.6 µg/mL of 56.7 ± 1.5% and an inhibition at 31.25 µg/mL of 29 ± 10.1%. In the series with C. marina, the “Biofilm inhibition, up to (highest over tested concentrations) C. marina” value is listed as no more than 46%; the inhibition at 0.98 µg/mL was 26.5 ± 3.8%; at 1.95 µg/mL the inhibition was 24.5 ± 3%; the inhibition at 3.91 µg/mL was found to be 26.9 ± 3.3%. Further, in the series on C. marina, the inhibition at 7.81 µg/mL stood at 34.4 ± 7.4%, the inhibition at 15.6 µg/mL turned out to be 42.6 ± 6.3% and the inhibition at 31.25 µg/mL was found to be 45.8 ± 2.9%.
For the molecule `CC1=CCC[C@@H](C)[C@]1(C)CC[C@@]1(C)c2c(O)cc3c(c2O[C@@H]1C)C(=O)C=C(CO)C3=O` (relative stereo) [compound 1, madeirone], the “Inhibition (%) A. fischeri” value in the series on Aliivibrio fischeri (50 µg/mL) is reported as 15.1%. Also, in the series on Aliivibrio fischeri (100 µg/mL), the “Inhibition (%) A. fischeri” value is on record as 49.2%. In addition, in series [1], the “EC50 [Conf. Limits] anti-settlement” value is given as 1.755 (1.308–5.492) µg/mL and the EC50 is 1.76 µg/mL (≈ 4.15 µM). Besides, the “Biofilm inhibition (%) M. hydrocarbonoclasticus” value in the series on M. hydrocarbonoclasticus (0.98 µg/mL, 24 h) is given as “N.I”. The “Biofilm inhibition (%) M. hydrocarbonoclasticus” value in the series with M. hydrocarbonoclasticus (1.95 µg/mL, 24 h) is on record as “N.I”. In addition, the “Biofilm inhibition (%) M. hydrocarbonoclasticus” value in the series with M. hydrocarbonoclasticus (3.91 µg/mL, 24 h) is given as “N.I”. In addition, the “Biofilm inhibition, up to (highest over tested concentrations) M. hydrocarbonoclasticus” value in the series with M. hydrocarbonoclasticus is recorded as “up to 60%”. In the series on M. hydrocarbonoclasticus (Marinobacter nauticus, 24 h), this molecule had an inhibition at 7.81 µg/mL of 14.2 ± 3.6%, an inhibition at 15.6 µg/mL of 33.9 ± 2.1% and an inhibition at 31.25 µg/mL of 60.1 ± 0.5%. Moreover, in the series on C. marina, the “Biofilm inhibition, up to (highest over tested concentrations) C. marina” value is recorded as “up to 40%”; the inhibition at 0.98 µg/mL turned out to be 28.6 ± 23.2%; the inhibition at 1.95 µg/mL worked out at 31.6 ± 15.3%; the inhibition at 3.91 µg/mL stood at 36.3 ± 6.4%. Further, in the series with C. marina, testing at 7.81 µg/mL gave an inhibition of 39.2 ± 5.4%, the inhibition at 15.6 µg/mL stood at 41.7 ± 10% and the inhibition at 31.25 µg/mL was determined as 31 ± 9.6%.

The EC50 is the midpoint of the concentration-response curve. As a reminder, the inhibition is the percentage by which the read-out fell short of the control. Read a high inhibition as a strong effect.
